US6525059B1, “Substituted pyrazoles as p38 kinase inhibitors” (G. D. Searle & Company, priority 1998, dated 2003)
Counter-ions that a name gives are not always drawn. Like-named read-outs stand apart in the source and are kept apart here.

Key:
human TNF = assay: TNF inhibition: human whole blood assay; type: cell-based; conditions: Homo sapiens
Procedure: Human peripheral blood is obtained in heparinized tubes. A 190 μL aliquot of blood is placed in each well of a 96 well u-bottom plate. […] After one hour of incubation at 37° C., […] of lipopolysaccharide (Salmonella typhosa, Sigma) in phosphate buffered saline is added resulting in a final concentration of […]. After four to five hours of incubation at 37° C., the supernatants are harvested and assayed at 1:10 or 1:20 dilutions for human TNF using ELISA.

human p38 kinase alpha = target: T1, human p38 kinase alpha (Homo sapiens, UniProt Q16539); assay: p38 kinase in vitro assay, phosphorylation of biotinylated PHAS-I with gamma 32P-ATP; type: biochemical
T1 construct: The coding region of the human p38a cDNA was obtained by PCR-amplification from RNA isolated from the human monocyte cell line THP.1; GST (N); made in house; host or cells: E. coli DH10B
Outline: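 Radiometric filter-capture read-out: streptavidin plates trap biotin-PHAS-I labelled by activated (MKK6) human p38α from γ-32P-ATP. Buffer 25 mM HEPES pH 7.5, 10 mM magnesium acetate, 50 μM cold ATP; reactions 1 h or overnight at 30 °C; inhibitors 10-fold dilutions 100 to 0.001 μM, triplicates, 1% DMSO.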

TNF-α = assay: Rat assay: LPS-challenged rats, serum TNF-α by ELISA; type: in vivo; conditions: for inhibition in vivo at 5 mg/kg: Rattus norvegicus, po
[1] = TNF production, LPS-stimulated human whole blood, read-out: Human Whole Blood IC50
[2] = read-out: P38 alpha kinase IC50
[3] = 5 mpk oral gavage, 4 h before LPS challenge, read-out: Rat LPS Model % Inhibition @ dose @ predose time
[4] = read-out: Human Whole Blood IC50, μM
[5] = read-out: Rat LPS Model % Inhibition @ dose @ predose time

T1 sequence (Q16539 whole entry): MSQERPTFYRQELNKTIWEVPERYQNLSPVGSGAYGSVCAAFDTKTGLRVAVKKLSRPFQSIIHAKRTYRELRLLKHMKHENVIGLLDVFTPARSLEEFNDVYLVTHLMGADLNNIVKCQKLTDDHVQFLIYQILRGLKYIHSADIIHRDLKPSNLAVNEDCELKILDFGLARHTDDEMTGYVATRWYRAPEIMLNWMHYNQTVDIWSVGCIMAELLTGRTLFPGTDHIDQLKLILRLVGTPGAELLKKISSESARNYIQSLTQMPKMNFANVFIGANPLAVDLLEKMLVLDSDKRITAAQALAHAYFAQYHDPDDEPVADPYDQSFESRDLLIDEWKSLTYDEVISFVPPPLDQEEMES

SMILES	IC50 (human TNF; [1])	IC50 (human p38 kinase alpha; [2])	inhibition in vivo at 5 mg/kg (TNF-α; [3])	also measured
Clc1ccc(-c2n[nH]c(C3CCNCC3)c2-c2ccncc2)cc1 [Example C-74, 5-(4-piperidyl)-4-(4-pyridyl)-3-(4-chlorophenyl)pyrazole hydrochloride]	0.56 µM	0.037 µM	54%	
CN1CCC(c2[nH]nc(-c3ccc(Cl)cc3)c2-c2ccncc2)CC1 [Example C-75]	0.4 µM	0.045 µM	71%	
CC(=O)N1CCC(c2[nH]nc(-c3ccc(Cl)cc3)c2-c2ccncc2)CC1 [Example C-76]	3.24 µM	0.07 µM	66%	
COCC(=O)N1CCC(c2[nH]nc(-c3ccc(Cl)cc3)c2-c2ccncc2)CC1 [Example C-77]	8.2 µM	0.071 µM	92%	
CS(=O)(=O)N1CCC(c2[nH]nc(-c3ccc(Cl)cc3)c2-c2ccncc2)CC1 [Example C-78]	10.5 µM	0.068 µM	87%	
COCCN1CCC(c2[nH]nc(-c3ccc(Cl)cc3)c2-c2ccncc2)CC1 [Example C-79]	0.52 µM	0.045 µM	83%	
FC(F)(F)c1ccc(-c2n[nH]c(C3CCNCC3)c2-c2ccncc2)cc1 [Example C-83]	1.23 µM	0.24 µM	25%	
CN1CCC(c2[nH]nc(-c3ccc(C(F)(F)F)cc3)c2-c2ccncc2)CC1 [Example C-84, 5-(N-METHYL-4-(4-PYRIDYL)-4-(4-PYRIDYL)-3-[4-(TRIFLUOROMETHYL)PHENYL]PYRAZOLE]	0.88 µM	0.048 µM	22%	
FC(F)(F)c1cccc(-c2n[nH]c(C3CCNCC3)c2-c2ccncc2)c1 [Example C-86]	0.19 µM	0.007 µM	66%	
Clc1cccc(-c2n[nH]c(C3CCNCC3)c2-c2ccncc2)c1 [Example C-88]	0.3 µM	0.012 µM	59%	
CN1CCC(c2[nH]nc(-c3cccc(Cl)c3)c2-c2ccncc2)CC1 [Example C-89]	0.12 µM	0.039 µM	27%	
CN1CCCC(c2[nH]nc(-c3ccc(F)cc3)c2-c2ccncc2)C1 (stereo not shown) [Example C-91]	2.31 µM	0.054 µM	63%	
N[C@H]1CC[C@@H](c2[nH]nc(-c3ccc(Cl)cc3)c2-c2ccncc2)CC1 [Example C-92, 5-cis-(4-AMINOCYCLOHEXYL)-4-(4-PYRIDYL)-3-(4-CHLOROPHENYL)PYRAZOLE]	0.28 µM	0.024 µM	66%	
CN(C)[C@H]1CC[C@@H](c2[nH]nc(-c3ccc(Cl)cc3)c2-c2ccncc2)CC1 [Example C-93, 5-cis-(4-N,N-DIMETHYLAMINOCYCLOHEXYL)-4-(4-PYRIDYL)-3-(4-CHLOROPHENYL)PYRAZOLE]	0.38 µM	0.009 µM	50%	
CC(C)N[C@H]1CC[C@@H](c2[nH]nc(-c3ccc(Cl)cc3)c2-c2ccncc2)CC1 [Example C-94, 5-[cis-4-N-(2-PROPYL)AMINOCYCLOHEXYL]-4-(4-PYRIDYL)-3-(4-CHLOROPHENYL)PYRAZOLE]	0.27 µM	0.02 µM	73%	
CS(=O)(=O)N[C@H]1CC[C@@H](c2[nH]nc(-c3ccc(Cl)cc3)c2-c2ccncc2)CC1 [Example C-97, 5-cis-[4-N-(METHYLSULFONYL)AMINOCYCLOHEXYL]-4-(4-PYRIDYL)-3-(4-CHLOROPHENYL)PYRAZOLE]	3.83 µM	0.025 µM	21%	
N[C@H]1CC[C@@H](c2[nH]nc(-c3ccc(F)cc3)c2-c2ccncc2)CC1 [Example C-98, 5-cis-(4-AMINOCYCLOHEXYL-4-(4-PYRIDYL)-3-(4-FLUOROPHENYL)PYRAZOLE]	0.64 µM	0.016 µM	78%	
CN(C)[C@H]1CC[C@@H](c2[nH]nc(-c3ccc(F)cc3)c2-c2ccncc2)CC1 [Example C-99, 5-(cis-4-N,N-DIMETHYLAMINOCYCLOHEXYL)-4-(4-PYRIDYL)-3-(4-FLUOROPHENYL)PYRAZOLE]	0.38 µM	0.062 µM	36%	
CC(C)N[C@H]1CC[C@@H](c2[nH]nc(-c3ccc(F)cc3)c2-c2ccncc2)CC1 [Example C-100, 5-cis-[4-N-(2-PROPYL)AMINOCYCLOHEXYL]-4-(4-PYRIDYL)-3-(4-FLUOROPHENYL)PYRAZOLE]	0.27 µM	0.027 µM	44%	

SMILES	IC50 (human TNF; [1])	IC50 (human p38 kinase alpha; [2])	inhibition in vivo at 5 mg/kg (TNF-α; [3])	also measured
CN(C)[C@H]1CC[C@@H](c2[nH]nc(-c3ccc(C(F)(F)F)cc3)c2-c2ccncc2)CC1 [Example C-102, 5-cis-(4-N,N-DIMETHYLAMINOCYCLOHEXYL)-4-(4-PYRIDYL)-3-[4-(TRIFLUOROMETHYL)PHENYL]PYRAZOLE]	7.56 µM		72%	
CN(C)[C@H]1CC[C@@H](c2[nH]nc(-c3cccc(Cl)c3)c2-c2ccncc2)CC1 [Example C-106, 5-cis-(4-N,N-DIMETHYLAMINOCYCLOHEXYL)-4-(4-PYRIDYL)-3-(3-CHLOROPHENYL)PYRAZOLE]	0.44 µM	0.026 µM	23%	
CC(=N)N1CCC(c2[nH]nc(-c3ccc(F)cc3)c2-c2ccncc2)CC1 [Example C-107]				IC50 (human TNF; [4]): 0.38 µM; IC50 (human p38 kinase alpha; P38 alpha kinase IC50, μM): 0.014 µM; inhibition in vivo at 5 mg/kg (TNF-α; [5]): 11%
N=C(N)N1CCC(c2[nH]nc(-c3ccc(F)cc3)c2-c2ccncc2)CC1 [Example C-108]	0.73 µM	0.02 µM	0%	
CS(=O)(=O)N1CCC(c2[nH]nc(-c3ccc(F)cc3)c2-c2ccncc2)CC1 [Example C-111]	6.05 µM	0.21 µM	39%	
COCC(=O)N1CCC(c2[nH]nc(-c3ccc(F)cc3)c2-c2ccncc2)CC1 [Example C-112]	6.36 µM	0.54 µM	89%	
CC(=O)N1CCC(c2[nH]nc(-c3ccc(F)cc3)c2-c2ccncc2)CC1 [Example C-113]	2.72 µM	0.082 µM	77%	
COCc1[nH]nc(-c2ccc(Cl)cc2)c1-c1ccncc1 [Example C-115, 5-(METHOXYMETHYL)-4-(4-PYRIDYL)-3-(4-CHLOROPHENYL)PYRAZOLE]	10.2 µM	0.042 µM	39%	
Nc1ccc(Cc2[nH]nc(-c3ccc(Cl)cc3)c2-c2ccncc2)cc1 [Example C-116, 5-(4-AMINOBENZYL)-4-(4-PYRIDYL)-3-(4-CHLOROPHENYL)PYRAZOLE]	0.5 µM	0.429 µM	53%	
CN(C)c1ccc(Cc2[nH]nc(-c3ccc(Cl)cc3)c2-c2ccncc2)cc1 [Example C-117]	7.26 µM	3.42 µM	71%	
CC(=O)Nc1ccc(Cc2[nH]nc(-c3ccc(Cl)cc3)c2-c2ccncc2)cc1 [Example C-118, 5-[4-(N-ACETYL)AMINOBENZYL]-4-(4-PYRIDYL)-3-(4-CHLOROPHENYL)PYRAZOLE]	> 25 µM	0.298 µM	39%	
CC(C)(N)C(=O)NCc1[nH]nc(-c2ccc(F)cc2)c1-c1ccncc1 [Example C-120]		0.7 µM		IC50 (human TNF; [4]): 18.6 µM; inhibition in vivo at 5 mg/kg (TNF-α; [5]): 26%
CC(C)(N)C(=O)NCc1[nH]nc(-c2ccc(Cl)cc2)c1-c1ccncc1 [Example C-121]				IC50 (human TNF; [4]): 15.3 µM; inhibition in vivo at 5 mg/kg (TNF-α; [5]): 39%
CN1CCC[C@H]1c1[nH]nc(-c2ccc(F)cc2)c1-c1ccncc1 [Example C-124, (S)-5-(N-METHYL-2-PYROLIDINYL)-4-(4-PYRIDYL)-3-(4-FLUOROPHENYL)PYRAZOLE]	4.56 µM	0.17 µM	51%	
CN1CCC[C@@H]1c1[nH]nc(-c2ccc(F)cc2)c1-c1ccncc1 [Example C-126, (R)-5-(N-METHYL-2-PYROLIDINYL)-4-(4-PYRIDYL)-3-(4-FLUOROPHENYL)PYRAZOLE]	> 25 µM	0.71 µM	6%	
CN1CCC[C@@H](c2[nH]nc(-c3ccc(F)cc3)c2-c2ccncc2)C1 [Example C-128]	2.22 µM	0.09 µM	63%	
CC(C)(O)CCCc1[nH]nc(-c2ccc(F)cc2)c1-c1ccncc1 [Example C-133]	4.54 µM	0.16 µM	55%	
CC(=O)N1CCCC(c2[nH]nc(-c3ccc(F)cc3)c2-c2ccncc2)C1 (stereo not shown) [Example C-138]	0.68 µM	0.28 µM	26%	
O=C(CO)N1CCC(c2[nH]nc(-c3ccc(Cl)cc3)c2-c2ccncn2)CC1 [Example D-2, N-(2-Hydroxyacetyl)-5-(4-piperidyl)-4-(4-pyrimidyl)-3-(4-chlorophenyl)pyrazole hydrochloride]				IC50 (human TNF; TNF production, LPS-stimulated human whole blood, read-out: HWB IC50): 1.79 µM; ratLPS/% Inh @1.0 (mg/kg) (TNF-α; 1.0 mg/kg oral gavage, 4 hours before LPS challenge, hydrochloride): 89.0%; inhibition in vivo at 5 mg/kg (TNF-α; 5.0 mg/kg oral gavage, 4 hours before LPS challenge, read-out: ratLPS/% Inh @5.0 (mg/kg)): 95%
